The values below come from PMC11988556, “Combined Cytotoxic Effects of the Fungicide Azoxystrobin and Common Food-Contaminating Mycotoxins” (Foods, 2025).

For assay [1], the system named is HepG2 cells. The experiment in a line: resazurin reduction cytotoxicity assay, with CI-isobologram analysis of mixtures. In kind it is cell-based, human.
For assay [2], the system named is HepG2 cells. The experiment in a line: MTT cytotoxicity assay, with CI-isobologram analysis of mixtures. The assay is classed as cell-based, human. The conditions noted are these: for reduction of cell viability at the higher concentration tested: MTT, highest concentration of the combination experiment.
Setting [3] is: HepG2, 24 h, resazurin, highest concentration of the combination experiment.
The mark [4] stands for this setting: HepG2, 24 h exposure, resazurin assay, spread in brackets, read-out: IC50.
The mark [5] stands for this setting: resazurin method, HepG2, 24 h, median-effect equation, read-out: Dm (median-effect concentration).
The mark [6] stands for this setting: IC50 from MTT individual cytotoxicity experiments, used to set combination ratios, 24 h, read-out: IC50 Concentration.
The mark [7] stands for this setting: MTT method, HepG2, 24 h, median-effect equation, read-out: Dm (median-effect concentration).
[8] abbreviates: read-out: Dm (median-effect concentration).

In the case of `CO/C=C(/C(=O)OC)c1ccccc1Oc1cc(Oc2ccccc2C#N)ncn1` [AZX, azoxystrobin], the “reduction of cell viability at the higher concentration tested” value (from here on “reduction of cell viability”) in the assay with HepG2 cells [1] (setting [3]) was found to be 27%; in the assay on HepG2 cells [2] (HepG2, 24 h) it was 43%. Besides, the IC50 in the assay with HepG2 cells [1] (setting [4]) turned out to be 231 µM; in the assay on HepG2 cells [1] (setting [5]), 638 µM; in the assay with HepG2 cells [2] (setting [6]), 206 µM; in the assay with HepG2 cells [2] (setting [7]), 284 µM.

For `CC1=C[C@H]2O[C@@H]3[C@H](O)C[C@](C)([C@@]2(CO)[C@H](O)C1=O)[C@]31CO1` [DON, deoxynivalenol], the “reduction of cell viability” value in the assay on HepG2 cells [1] (setting [3]) was determined as 59%; in the assay on HepG2 cells [2] (HepG2, 24 h), 69%. The IC50 in the assay with HepG2 cells [1] (setting [4]) turned out to be 6.61 µM; in the assay on HepG2 cells [1] (setting [5]), 5.33 µM; in the assay on HepG2 cells [2] (setting [6]), 9.39 µM; with HepG2 cells [2] (setting [7]), 2.74 µM.

Regarding `C[C@@H]1Cc2c(Cl)cc(C(=O)N[C@@H](Cc3ccccc3)C(=O)O)c(O)c2C(=O)O1` [OTA, ochratoxin A], the “reduction of cell viability” value with HepG2 cells [1] (setting [3]) came out at 44%; with HepG2 cells [2] (HepG2, 24 h), 59%. In addition, the IC50 is 147 µM with HepG2 cells [1] (Homo sapiens, HepG2, 24 h exposure, resazurin assay, spread in brackets, read-out: IC50); 87.6 µM in the assay on HepG2 cells [1] (Homo sapiens, resazurin method, HepG2, 24 h, median-effect equation, read-out: Dm (median-effect concentration)); 195 µM in the assay on HepG2 cells [2] (Homo sapiens, HepG2, IC50 from MTT individual cytotoxicity experiments, used to set combination ratios, 24 h, read-out: IC50 Concentration); 57.1 µM in the assay on HepG2 cells [2] (Homo sapiens, MTT method, HepG2, 24 h, median-effect equation, read-out: Dm (median-effect concentration)).

As for `CC(=O)OC[C@]12C[C@H](OC(=O)CC(C)C)C(C)=C[C@H]1O[C@@H]1[C@H](O)[C@@H](OC(C)=O)[C@@]2(C)[C@]12CO2` [T2, T-2 toxin], the “reduction of cell viability” value with HepG2 cells [1] was found to be 40%. Moreover, the IC50 came out at 0.1 µM with HepG2 cells [1] (setting [8]), 0.051 µM in the assay with HepG2 cells [1] (read-out: IC50), 0.06 µM in the assay with HepG2 cells [2] (setting [8]) and 0.059 µM in the assay on HepG2 cells [2] (read-out: IC50 Concentration).
